Where two headings read alike, the source gives them in different places.
Columns and labels:
db/db mice [1] = conditions: for Hemoglobin A1c relative levels (%) 35th day from the administration: db/db mice, negative sample = 100
Experimental: As type-II diabetes model mice, 6-week old male db/db mice (purchased from Clea Japan, Inc.) were used. These mice were divided into groups, each consisting of 7 animals. The test sample was dissolved in DMSO, and the concentration of 3-O-β-D-glucopyranosyl-4-methylergost-7-en-3-ol was adjusted to 1, 5 and 15 μg/mL with physiological saline. The final DMSO concentration was adjusted to 0.2%. The type-II diabetes model mice were orally administered with 1 mL of the test sample solution once day everyday with a sonde. […] On the 35th day from the start of the administration, hemoglobin A1c levels were measured by using DCA 2000 (Bayer-Sankyo Co., Ltd.).

db/db mice [2] = assay: Test Example 1: hyperglycemia improving effect, random and fasting blood glucose levels in type-II diabetes model mice; format: in vivo; conditions: oral 1 mL of 15 μg/mL once a day, vs negative sample
Experimental: The final DMSO concentration was adjusted to 0.2%. The type-II diabetes model mice were orally administered 1 mL of the test sample solution once a day everyday with a sonde. […] Fasting blood glucose levels and random blood glucose levels were measured over time using Antisense II (Bayer-Sankyo Co., Ltd.). The fasting blood glucose levels were measured after 15 hours of fasting.

## CC1C(O[C@@H]2O[C@H](CO)[C@@H](O)[C@H](O)[C@H]2O)CC[C@@]2(C)C1CC=C1[C@@H]3CC[C@H]([C@H](C)CC[C@H](C)C(C)C)[C@@]3(C)CC[C@@H]12 (stereo partly drawn) [compound 1, 3-O-β-D-glucopyranosyl-4-methylergost-7-en-3-ol]
db/db mice [1]; 1 μg oral once a day
  Hemoglobin A1c relative levels (%) 35th day from the administration: 98.6 ± 7.3%
db/db mice [1]; 5 μg oral once a day
  Hemoglobin A1c relative levels (%) 35th day from the administration: 89.6 ± 7.9 %
db/db mice [1]; 15 μg oral once a day
  Hemoglobin A1c relative levels (%) 35th day from the administration: 73.5 ± 8.6 %
db/db mice [1]; repetitive administration of 5 or 15 μg, 35th day
  hemoglobin A1c levels in comparison with negative sample: statistically significant decreases
db/db mice [2]; after 15 hours of fasting
  fasting blood glucose levels, changes over time: effect of suppressing the increases in blood glucose levels was clearly observed
db/db mice [2]
  random blood glucose levels, changes over time: effect of suppressing the increases in blood glucose levels was clearly observed

Source: patent US8486462B2, “Glycoside having 4-methylergost-7-en-3-ol skeleton and hyperglycemia improving agent” (Morinaga Milk Industry Co., Ltd., priority 2004, dated 2013)
